Source: ChEMBL document CHEMBL3046894, “Synthesis and Herbicidal Activity of Pyrimidinyl Salicylic and Thiosalicylic Acids” (J Pestic Sci, 1996)
Calls of active or inactive are those of the source. No cut-off for these calls is given here.

Legend:
Abutilon theophrasti [1] = assay: Post-emergence herbicidal activity against Abutilon theophrasti (velvetleaf) assessed as mortality at 6.3 g a.i/10 a applied 11 days after germination as foliar spray; assay type: functional; conditions: 264 h
Gossypium hirsutum [2] = assay: Pre-emergence phytotoxicity against Gossypium hirsutum (cotton) assessed as mortality at 6.3 g a.i/10 a; assay type: organism-based; conditions: in vivo, other
Glycine max [3] = assay: Pre-emergence phytotoxicity against Glycine max (soybean) assessed as mortality at 1.6 g a.i/10 a; assay type: organism-based; conditions: in vivo, other
Glycine max [4] = assay: (§1) Pre-emergence phytotoxicity against Glycine max (soybean) assessed as mortality at 6.3 g a.i/10 a; assay type: organism-based; conditions: in vivo, other
Zea mays [5] = assay: Pre-emergence phytotoxicity against Zea mays (maize) assessed as mortality at 1.6 g a.i/10 a; assay type: organism-based; conditions: in vivo, other
Gossypium hirsutum [6] = assay: Post-emergence phytotoxicity against Gossypium hirsutum (cotton) assessed as mortality at 1.6 g a.i/10 a applied 11 days after germination as foliar spray; assay type: organism-based; conditions: in vivo, other, 264 h
Gossypium hirsutum [7] = assay: (§2) Post-emergence phytotoxicity against Gossypium hirsutum (cotton) assessed as mortality at 6.3 g a.i/10 a applied 11 days after germination as foliar spray; assay type: organism-based; conditions: in vivo, other, 264 h
[8] = (§3) Post-emergence phytotoxicity against Glycine max (soybean) assessed as mortality at 1.6 g a.i/10 a applied 11 days after germination as foliar spray; assay type: organism-based; conditions: in vivo, 1.6 g a.i/10 a
[9] = (§4) Post-emergence phytotoxicity against Zea mays (maize) assessed as mortality at 1.6 g a.i/10 a applied 11 days after germination as foliar spray; assay type: organism-based; conditions: in vivo, 1.6 g a.i/10 a
Cyperus iria [10] = assay: Pre-emergence herbicidal activity against Cyperus iria assessed as growth inhibition at 25 g a.i/10 a; assay type: functional, organism-based
Chenopodium album [11] = assay: Pre-emergence herbicidal activity against Chenopodium album assessed as growth inhibition at 25 g a.i/10 a; assay type: functional, organism-based
Amaranthus retroflexus [12] = assay: Pre-emergence herbicidal activity against Amaranthus retroflexus assessed as growth inhibition at 25 g a.i/10 a; assay type: functional, organism-based
Persicaria nodosa [13] = assay: Pre-emergence herbicidal activity against Persicaria nodosa assessed as growth inhibition at 25 g a.i/10 a; assay type: functional, organism-based
Digitaria sanguinalis [14] = assay: Pre-emergence herbicidal activity against Digitaria sanguinalis (hairy crabgrass) assessed as growth inhibition at 25 g a.i/10 a; assay type: functional, organism-based
Echinochloa crus-galli [15] = assay: Pre-emergence herbicidal activity against Echinochloa crus-galli (barnyard grass) assessed as growth inhibition at 25 g a.i/10 a; assay type: functional, organism-based
Cyperus iria [16] = assay: Post-emergence herbicidal activity against Cyperus iria assessed as growth inhibition at 25 g a.i/10 a applied 11 days after germination as foliar spray; assay type: functional, organism-based
Chenopodium album [17] = assay: Post-emergence herbicidal activity against Chenopodium album assessed as growth inhibition at 25 g a.i/10 a applied 11 days after germination as foliar spray; assay type: functional, organism-based
Amaranthus retroflexus [18] = assay: Post-emergence herbicidal activity against Amaranthus retroflexus assessed as growth inhibition at 25 g a.i/10 a applied 11 days after germination as foliar spray; assay type: functional, organism-based
Persicaria nodosa [19] = assay: Post-emergence herbicidal activity against Persicaria nodosa assessed as growth inhibition at 25 g a.i/10 a applied 11 days after germination as foliar spray; assay type: functional, organism-based
Digitaria sanguinalis [20] = assay: Post-emergence herbicidal activity against Digitaria sanguinalis (hairy crabgrass) assessed as growth inhibition at 25 g a.i/10 a applied 11 days after germination as foliar spray; assay type: functional, organism-based
Echinochloa crus-galli [21] = assay: Post-emergence herbicidal activity against Echinochloa crus-galli (barnyard grass) assessed as growth inhibition at 25 g a.i/10 a applied 11 days after germination as foliar spray; assay type: functional, organism-based
Xanthium strumarium [22] = assay: Pre-emergence herbicidal activity against Xanthium strumarium (cocklebur) assessed as mortality at 1.6 g a.i/10 a; assay type: functional; conditions: Xanthium strumarium, pre-emergence
Ipomoea lacunosa [23] = assay: Pre-emergence herbicidal activity against Ipomoea lacunosa assessed as mortality at 1.6 g a.i/10 a; assay type: functional; conditions: Ipomoea lacunosa, pre-emergence
Ipomoea lacunosa [24] = assay: Pre-emergence herbicidal activity against Ipomoea lacunosa assessed as mortality at 6.3 g a.i/10 a; assay type: functional; conditions: Ipomoea lacunosa, pre-emergence
Ipomoea lacunosa [25] = assay: Post-emergence herbicidal activity against Ipomoea lacunosa assessed as mortality at 6.3 g a.i/10 a applied 11 days after germination as foliar spray; assay type: functional; conditions: 264 h
Abutilon theophrasti [26] = assay: Post-emergence herbicidal activity against Abutilon theophrasti (velvetleaf) assessed as mortality at 1.6 g a.i/10 a applied 11 days after germination as foliar spray; assay type: functional; conditions: 264 h
[27] = as §2; assay type: organism-based; conditions: in vivo, 6.3 g a.i/10 a
Glycine max [28] = assay: Post-emergence phytotoxicity against Glycine max (soybean) assessed as mortality at 6.3 g a.i/10 a applied 11 days after germination as foliar spray; assay type: organism-based; conditions: in vivo, other, 264 h
Glycine max [29] = assay: as §3; assay type: organism-based; conditions: in vivo, other, 264 h
Zea mays [30] = assay: as §4; assay type: organism-based; conditions: in vivo, other, 264 h
Echinochloa crus-galli [31] = assay: Post-emergence herbicidal activity against Echinochloa crus-galli (barnyard grass) assessed as mortality at 1.6 g a.i/10 a applied 11 days after germination as foliar spray; assay type: functional; conditions: 264 h
Echinochloa crus-galli [32] = assay: Post-emergence herbicidal activity against Echinochloa crus-galli (barnyard grass) assessed as mortality at 6.3 g a.i/10 a applied 11 days after germination as foliar spray; assay type: functional; conditions: 264 h
Zea mays [33] = assay: Post-emergence phytotoxicity against Zea mays (maize) assessed as mortality at 6.3 g a.i/10 a applied 11 days after germination as foliar spray; assay type: organism-based; conditions: in vivo, other, 264 h
Xanthium strumarium [34] = assay: Post-emergence herbicidal activity against Xanthium strumarium (cocklebur) assessed as mortality at 1.6 g a.i/10 a applied 11 days after germination as foliar spray; assay type: functional; conditions: 264 h
Echinochloa crus-galli [35] = assay: Pre-emergence herbicidal activity against Echinochloa crus-galli (barnyard grass) assessed as mortality at 6.3 g a.i/10 a; assay type: functional; conditions: Echinochloa crus-galli, pre-emergence
[36] = as §1; assay type: organism-based; conditions: in vivo, 6.3 g a.i/10 a, read-out: mortality
Xanthium strumarium [37] = assay: Pre-emergence herbicidal activity against Xanthium strumarium (cocklebur) assessed as mortality at 6.3 g a.i/10 a; assay type: functional; conditions: Xanthium strumarium, pre-emergence
Abutilon theophrasti [38] = assay: Pre-emergence herbicidal activity against Abutilon theophrasti (velvetleaf) assessed as mortality at 6.3 g a.i/10 a; assay type: functional; conditions: Abutilon theophrasti, pre-emergence
Ipomoea lacunosa [39] = assay: Post-emergence herbicidal activity against Ipomoea lacunosa assessed as mortality at 1.6 g a.i/10 a applied 11 days after germination as foliar spray; assay type: functional; conditions: 264 h

CCOc1cccc(Oc2nc(OC)cc(OC)n2)c1C(=O)O
mortality at 63 g/ha (Abutilon theophrasti [1]): > 90%
Activity (Gossypium hirsutum [2]): Non-toxic
Activity (Glycine max [3]): Non-toxic
Activity (Glycine max [4]): Toxic
Activity (Zea mays [5]): Toxic
Activity (Gossypium hirsutum [6]): Non-toxic
Activity (Gossypium hirsutum [7]): Toxic
mortality at 264 h [8]: > 90%
mortality at 264 h [9]: > 90%
growth inhibition (GI) (Cyperus iria [10]): Active
growth inhibition (GI) (Chenopodium album [11]): Active
growth inhibition (GI) (Amaranthus retroflexus [12]): Active
growth inhibition (GI) (Persicaria nodosa [13]): Active
growth inhibition (GI) (Digitaria sanguinalis [14]): Active
growth inhibition (GI) (Echinochloa crus-galli [15]): Active
growth inhibition (GI) (Cyperus iria [16]): Active
growth inhibition (GI) (Chenopodium album [17]): Active
growth inhibition (GI) (Amaranthus retroflexus [18]): Active
growth inhibition (GI) (Persicaria nodosa [19]): Active
growth inhibition (GI) (Digitaria sanguinalis [20]): Active
growth inhibition (GI) (Echinochloa crus-galli [21]): Active
mortality at 16 g/ha (Xanthium strumarium [22]): < 5%
mortality at 16 g/ha (Ipomoea lacunosa [23]): < 5%
mortality at 63 g/ha (Ipomoea lacunosa [24]): < 5%

COc1cc(OC)nc(Sc2cccc(SC)c2C(=O)O)n1
mortality at 63 g/ha (Ipomoea lacunosa [25]): > 90%
mortality at 16 g/ha (Abutilon theophrasti [26]): > 90%
mortality at 63 g/ha (Abutilon theophrasti [1]): > 90%
Activity (Gossypium hirsutum [6]): Non-toxic
mortality at 264 h [27]: > 90%
Activity (Glycine max [28]): Toxic
Activity (Glycine max [29]): Toxic
Activity (Zea mays [30]): Toxic
mortality at 16 g/ha (Echinochloa crus-galli [31]): < 5%
mortality at 63 g/ha (Echinochloa crus-galli [32]): < 5%

COc1cc(OC)nc(Oc2cccc(N)c2C(=O)O)n1
mortality at 16 g/ha (Abutilon theophrasti [26]): < 5%
Activity (Gossypium hirsutum [6]): Non-toxic
Activity (Gossypium hirsutum [7]): Toxic
Activity (Glycine max [29]): Toxic
Activity (Zea mays [30]): Toxic
Activity (Zea mays [33]): Toxic
mortality at 16 g/ha (Xanthium strumarium [34]): < 5%
growth inhibition (GI) (Cyperus iria [10]): Active
growth inhibition (GI) (Chenopodium album [11]): Active
growth inhibition (GI) (Amaranthus retroflexus [12]): Active
growth inhibition (GI) (Persicaria nodosa [13]): inactive
growth inhibition (GI) (Digitaria sanguinalis [14]): inactive
growth inhibition (GI) (Echinochloa crus-galli [15]): inactive
growth inhibition (GI) (Cyperus iria [16]): Active
growth inhibition (GI) (Chenopodium album [17]): Active
growth inhibition (GI) (Amaranthus retroflexus [18]): Active
growth inhibition (GI) (Persicaria nodosa [19]): Active
growth inhibition (GI) (Digitaria sanguinalis [20]): Active
growth inhibition (GI) (Echinochloa crus-galli [21]): Active

COc1cc(OC)nc(Oc2cccc(OC)c2C(=O)O)n1
mortality at 63 g/ha (Echinochloa crus-galli [35]): > 90%
mortality at 16 g/ha (Abutilon theophrasti [26]): > 90%
mortality at 63 g/ha (Abutilon theophrasti [1]): > 90%
Activity (Gossypium hirsutum [2]): Non-toxic
Activity (Glycine max [3]): Non-toxic
mortality [36]: > 90%
Activity (Zea mays [5]): Toxic
Activity (Gossypium hirsutum [6]): Toxic
mortality at 264 h [27]: > 90%
mortality at 264 h [8]: > 90%
mortality at 264 h [9]: > 90%
mortality at 16 g/ha (Xanthium strumarium [34]): < 5%
mortality at 63 g/ha (Echinochloa crus-galli [32]): > 90%
growth inhibition (GI) (Cyperus iria [10]): Active
growth inhibition (GI) (Chenopodium album [11]): Active
growth inhibition (GI) (Amaranthus retroflexus [12]): Active
growth inhibition (GI) (Persicaria nodosa [13]): Active
growth inhibition (GI) (Digitaria sanguinalis [14]): Active
growth inhibition (GI) (Echinochloa crus-galli [15]): Active
growth inhibition (GI) (Cyperus iria [16]): Active
growth inhibition (GI) (Chenopodium album [17]): Active
growth inhibition (GI) (Amaranthus retroflexus [18]): Active
growth inhibition (GI) (Persicaria nodosa [19]): Active
growth inhibition (GI) (Digitaria sanguinalis [20]): Active
growth inhibition (GI) (Echinochloa crus-galli [21]): Active
mortality at 16 g/ha (Xanthium strumarium [22]): < 5%
mortality at 63 g/ha (Xanthium strumarium [37]): < 5%
mortality at 16 g/ha (Ipomoea lacunosa [23]): < 5%
mortality at 63 g/ha (Ipomoea lacunosa [24]): < 5%
mortality at 63 g/ha (Abutilon theophrasti [38]): > 90%

CCc1cccc(Oc2nc(OC)cc(OC)n2)c1C(=O)O
mortality at 63 g/ha (Echinochloa crus-galli [35]): > 90%
mortality at 16 g/ha (Ipomoea lacunosa [39]): < 5%
mortality at 16 g/ha (Abutilon theophrasti [26]): > 90%
mortality at 63 g/ha (Abutilon theophrasti [1]): > 90%
Activity (Gossypium hirsutum [2]): Non-toxic
Activity (Glycine max [3]): Non-toxic
Activity (Glycine max [4]): Toxic
Activity (Zea mays [5]): Toxic
Activity (Gossypium hirsutum [6]): Toxic
Activity (Gossypium hirsutum [7]): Toxic
mortality at 264 h [8]: > 90%
mortality at 264 h [9]: > 90%
mortality at 16 g/ha (Xanthium strumarium [34]): < 5%
mortality at 63 g/ha (Echinochloa crus-galli [32]): > 90%
growth inhibition (GI) (Cyperus iria [10]): Active
growth inhibition (GI) (Chenopodium album [11]): Active
growth inhibition (GI) (Amaranthus retroflexus [12]): Active
growth inhibition (GI) (Persicaria nodosa [13]): Active
growth inhibition (GI) (Digitaria sanguinalis [14]): Active
growth inhibition (GI) (Echinochloa crus-galli [15]): Active
growth inhibition (GI) (Cyperus iria [16]): Active
growth inhibition (GI) (Chenopodium album [17]): Active
growth inhibition (GI) (Amaranthus retroflexus [18]): Active
growth inhibition (GI) (Persicaria nodosa [19]): Active
growth inhibition (GI) (Digitaria sanguinalis [20]): Active
growth inhibition (GI) (Echinochloa crus-galli [21]): Active
mortality at 16 g/ha (Xanthium strumarium [22]): < 5%
mortality at 16 g/ha (Ipomoea lacunosa [23]): < 5%
